Source: ChEMBL document CHEMBL1201861, “Genomics of Drug Sensitity in Cancer screening data, Wellcome Trust Sanger Institute”

Columns and labels:
[1] = system: Caov-3 cell line; assay: cells; type: functional, cell-based, Homo sapiens;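 further: cell growth inhibition read out by a viability assay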
Description: SANGER: Inhibition of human Caov-3 cell growth in a cell viability assay.

[2] = system: DMS-53; assay: cells; type: functional, cell-based, Homo sapiens;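 further: cell viability assay measuring growth inhibition of human DMS-53 cells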
Description: SANGER: Inhibition of human DMS-53 cell growth in a cell viability assay.

[3] = system: EW-7; assay: SANGER: Inhibition of human EW-7 cell growth in a cell viability assay.; type: functional, cell-based
[4] = system: HCC1143; assay: cells; type: functional, cell-based, Homo sapiens;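 further: growth inhibition of human HCC1143 cells, read out with a cell viability assay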
Description: SANGER: Inhibition of human HCC1143 cell growth in a cell viability assay.

[5] = system: MDA-MB-468; assay: cells; type: functional, cell-based, Homo sapiens
Description: SANGER: Inhibition of human MDA-MB-468 cell growth in a cell viability assay.

[6] = system: MES-SA; assay: cells; type: functional, cell-based, Homo sapiens;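 further: growth inhibition of human MES-SA cells, read out with a cell viability assay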
Description: SANGER: Inhibition of human MES-SA cell growth in a cell viability assay.

[7] = system: MFE-296; assay: SANGER: Inhibition of human MFE-296 cell growth in a cell viability assay.; type: functional, cell-based
[8] = system: NCI-H838; assay: cells; type: functional, cell-based, Homo sapiens;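 further: growth inhibition of human NCI-H838 cells, read out by a cell viability assay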
Description: SANGER: Inhibition of human NCI-H838 cell growth in a cell viability assay.

[9] = system: RT-4; assay: SANGER: Inhibition of human RT4 cell growth in a cell viability assay.; type: functional, cell-based
[10] = system: SK-CO-1; assay: cells; type: functional, cell-based, Homo sapiens;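 further: growth inhibition of SK-CO-1 cells, determined by a viability readout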
Description: SANGER: Inhibition of human SK-CO-1 cell growth in a cell viability assay.

[11] = system: SNU-475; assay: cells; type: functional, cell-based, Homo sapiens
Description: SANGER: Inhibition of human SNU-475 cell growth in a cell viability assay.

[12] = system: C-4-II; assay: SANGER: Inhibition of human C-4-II cell growth in a cell viability assay.; type: functional, cell-based
[13] = system: TT; assay: cells; type: functional, cell-based, Homo sapiens
Description: SANGER: Inhibition of human TT cell growth in a cell viability assay.

[14] = system: COLO 205; assay: cells; type: functional, cell-based, Homo sapiens
Description: SANGER: Inhibition of human COLO-205 cell growth in a cell viability assay.

[15] = system: ECC12; assay: cells; type: functional, cell-based; conditions: Homo sapiens
Description: SANGER: Inhibition of human ECC12 cell growth in a cell viability assay.

[16] = system: NCI-H128; assay: SANGER: Inhibition of human NCI-H128 cell growth in a cell viability assay.; type: functional, cell-based
[17] = system: NCI-H2107; assay: SANGER: Inhibition of human NCI-H2107 cell growth in a cell viability assay.; type: functional, cell-based
[18] = system: SKM-1; assay: SANGER: Inhibition of human SKM-1 cell growth in a cell viability assay.; type: functional, cell-based
[19] = system: ECC10; assay: cells; type: functional, cell-based, Homo sapiens; conditions: Homo sapiens, ECC10;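 further: growth inhibition of ECC10 cells, read out by a cell viability assay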
Description: SANGER: Inhibition of human ECC10 cell growth in a cell viability assay.

[20] = system: NBsusSR; assay: cells; type: functional, cell-based, Homo sapiens; conditions: Homo sapiens, NBsusSR;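 further: growth inhibition of the human cell line, read out with a cell viability assay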
Description: SANGER: Inhibition of human NBsusSR cell growth in a cell viability assay.

[21] = system: SW900; assay: cells; type: functional, cell-based, Homo sapiens; conditions: Homo sapiens, SW900;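 further: IC50 is the concentration that inhibits SW900 cell growth, measured by a cell viability assay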
Description: SANGER: Inhibition of human SW900 cell growth in a cell viability assay.

[22] = system: BALL-1; assay: cells; type: functional, cell-based, Homo sapiens; conditions: Homo sapiens, BALL-1;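 further: growth inhibition of BALL-1 cells, read out with a cell viability assay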
Description: SANGER: Inhibition of human BALL-1 cell growth in a cell viability assay.

[23] = system: CP67-MEL; assay: SANGER: Inhibition of human CP67-MEL cell growth in a cell viability assay.; type: functional, cell-based
[24] = system: KP-N-RT-BM-1; assay: SANGER: Inhibition of human KP-N-RT-BM-1 cell growth in a cell viability assay.; type: functional, cell-based

| Molecule | IC50 ([1]; Homo sapiens, Caov-3) | IC50 ([2]; Homo sapiens, DMS-53) | IC50 ([3]; Homo sapiens, EW-7) | IC50 ([4]; Homo sapiens, HCC1143) | IC50 ([5]; Homo sapiens, MDA-MB-468) | IC50 ([6]; Homo sapiens, MES-SA) | IC50 ([7]; Homo sapiens, MFE-296) | IC50 ([8]; Homo sapiens, NCI-H838) | IC50 ([9]; Homo sapiens, RT-4) | IC50 ([10]; Homo sapiens, SK-CO-1) | IC50 ([11]; Homo sapiens, SNU-475) | IC50 ([12]; Homo sapiens, C-4-II) | IC50 ([13]; Homo sapiens, TT) | IC50 ([14]; Homo sapiens, COLO 205) | also measured |
| --- | --- | --- | --- | --- | --- | --- | --- | --- | --- | --- | --- | --- | --- | --- | --- |
| Nc1ccn([C@@H]2O[C@H](CO)[C@@H](O)C2(F)F)c(=O)n1 [GEMCITABINE] | 0.0541 µM | > 1.02 µM | < 0.004 µM | > 1.02 µM | 0.0141 µM | < 0.004 µM | 0.0514 µM | 0.499 µM | > 1.02 µM | 0.034 µM | > 1.02 µM | 0.152 µM | > 1.02 µM | > 1.02 µM |  |
| CC[C@H](CO)Nc1nc(NCc2ccccc2)c2ncn(C(C)C)c2n1 [SELICICLIB] |  |  |  |  |  |  |  |  |  |  |  |  |  |  | IC50 [15]: > 16 µM; IC50 [16]: > 16 µM; IC50 [17]: > 16 µM; IC50 [18]: > 16 µM |
| Cc1cn(-c2cc(NC(=O)c3ccc(C)c(Nc4nccc(-c5cccnc5)n4)c3)cc(C(F)(F)F)c2)cn1 [NILOTINIB] |  |  |  |  |  |  |  |  |  |  |  |  |  |  | IC50 [19]: > 2 µM; IC50 [20]: > 2 µM; IC50 [21]: > 2 µM; IC50 [22]: > 2 µM |
| Cc1cc([N+](=O)[O-])ccc1NS(=O)(=O)c1cc(Cl)ccc1Cl | > 32 µM | 1.1 µM | > 32 µM | 1.82 µM | 1.21 µM | > 32 µM | 4.7 µM | 20.6 µM | > 32 µM | 13.4 µM | > 32 µM | 6.37 µM | 9.13 µM | 2.55 µM |  |
| Oc1ccc2ccccc2c1SSc1c(O)ccc2ccccc12 | > 32 µM | > 32 µM | > 32 µM | > 32 µM | > 32 µM | 23.9 µM | > 32 µM | > 32 µM | > 32 µM | > 32 µM | > 32 µM | > 32 µM | > 32 µM | > 32 µM |  |
| CN(C)C(=N)NC(=N)N [METFORMIN] |  |  |  |  |  |  |  |  |  |  |  |  |  |  | IC50 [19]: 2280 µM; IC50 [20]: 9190 µM; IC50 [21]: 19300 µM; IC50 [22]: > 20000 µM |
| BLEOMYCIN |  |  |  |  |  |  |  |  |  |  |  |  |  |  | IC50 ([1]; caov-3): 20.5 µM; IC50 ([2]; dms-53): 319 µM; IC50 ([3]; ew-7): 3.06 µM; IC50 ([4]; hcc1143): 27.2 µM; IC50 ([5]; mda-mb-468): 67.6 µM; IC50 ([6]; mes-sa): 1.67 µM; IC50 ([7]; mfe-296): 0.153 µM; IC50 ([8]; nci-h838): 5.95 µM; IC50 ([9]; rt-4): 0.00586 µM; IC50 ([10]; sk-co-1): 0.247 µM; IC50 ([11]; snu-475): 67.5 µM; IC50 ([12]; c-4-ii): 0.381 µM; IC50 ([13]; tt): 59.2 µM; IC50 ([14]; colo-205): 3.24 µM |
| Nc1cccc2c1CN(C1CCC(=O)NC1=O)C2=O (centres undefined) [LENALIDOMIDE] |  |  |  |  |  |  |  |  |  |  |  |  |  |  | IC50 [19]: > 5 µM; IC50 [20]: > 5 µM; IC50 [21]: > 5 µM; IC50 [22]: > 5 µM |
| O=C(O)c1ccc(-c2c[nH]c3ncc(-c4ccccc4)cc23)cc1C1CCCC1 [GSK-650394] | > 16 µM | > 16 µM | > 16 µM | > 16 µM | > 16 µM | 5.56 µM | 11.3 µM | > 16 µM | > 16 µM | > 16 µM | > 16 µM | 13.9 µM | > 16 µM | > 16 µM |  |
| CC(=O)O[C@H]1C(=O)[C@@]2(C)[C@H]([C@H](OC(=O)c3ccccc3)[C@]3(O)C[C@H](OC(=O)[C@H](O)[C@@H](NC(=O)c4ccccc4)c4ccccc4)C(C)=C1C3(C)C)[C@]1(OC(C)=O)CO[C@@H]1C[C@@H]2O [PACLITAXEL] |  |  |  |  |  |  |  |  |  |  |  |  |  |  | IC50 [23]: 0.0681 µM; IC50 [24]: > 0.102 µM; IC50 [16]: > 0.102 µM; IC50 [17]: > 0.102 µM; IC50 [18]: > 0.102 µM |
| N[C@@H](CSC(c1ccccc1)(c1ccccc1)c1ccccc1)C(=O)O [S-TRITYL-L-CYSTEINE] |  |  |  |  |  |  |  |  |  |  |  |  |  |  | IC50 [23]: 2.39 µM; IC50 [24]: > 5.12 µM; IC50 [16]: > 5.12 µM; IC50 [17]: > 5.12 µM; IC50 [18]: > 5.12 µM |
| COc1cccc2c1C(=O)c1c(O)c3c(c(O)c1C2=O)C[C@@](O)(C(=O)CO)C[C@@H]3O[C@H]1C[C@H](N)[C@H](O)[C@H](C)O1 [DOXORUBICIN] | 0.406 µM | > 1.02 µM | 0.0306 µM | > 1.02 µM | 0.0762 µM | 0.0995 µM | 0.0705 µM | 0.225 µM | > 1.02 µM | 0.129 µM | > 1.02 µM | 0.473 µM | > 1.02 µM | 0.027 µM |  |
| C=C(c1ccc(C(=O)O)cc1)c1cc2c(cc1C)C(C)(C)CCC2(C)C [BEXAROTENE] | > 8 µM | > 8 µM | > 8 µM | > 8 µM | > 8 µM | > 8 µM | > 8 µM | > 8 µM | > 8 µM | > 8 µM | > 8 µM | > 8 µM | > 8 µM | > 8 µM |  |
| CCN(CC)CCNC(=O)c1c(C)[nH]c(/C=C2\C(=O)Nc3ccc(F)cc32)c1C [SUNITINIB] |  |  |  |  |  |  |  |  |  |  |  |  |  |  | IC50 [23]: > 8 µM; IC50 [24]: > 8 µM; IC50 [16]: > 8 µM; IC50 [17]: > 8 µM; IC50 [18]: > 8 µM |
